Type in all cases: cell-based
Assay [1] relates to Human Leukemia Line (K562). Kind of assay: Tumor cell proliferation assay (MTT), K562. The note with it: concentration of 10^−5 mol/L, preliminary screening, 72 hours, read-out: Inhibition rate % K562. An excerpt:
(§1) The assay used generally is the blue tetrazolium bromide (MTT) method. […] The amount of formazan can be detected by the microplate reader through the absorption value at 570 nm. The amount of formazan product generated is proportional to the number of living cells in the sample, so the OD value may reflect the number of living cells and the ability of a test drug to inhibit or kill cells. The MTT assay may be used in determining the ability of different compounds of the present invention to inhibit one or more cancer cells proliferation. Similar assays can be designed along the same lines for any cancer cell using techniques well known in the art.
(§2) The assay used generally is the blue tetrazolium bromide (MTT) method. […] Intracellular purple formazan salt crystals can be solved in DMSO and the absorption value at 570 nm is detected by the microplate reader, then the number of living cells can be detected indirectly. So MTT assay may be used to determine the ability of a compound of the present invention to inhibit cell proliferation. Similar assays can be designed along the same lines for any cancer cell using techniques well known in the art.
2.2.3 Human Leukemia Line (K562)
(§3) The cells of the 2.2.1, 2.2.2, 2.2.3, 2.2.4, 2.2.5 cultured with RPMI 1640 containing 12% calf serum in the condition of 37° C., 5% CO2.
(§4) 2.3.1 Cell seeding: Trypsinize the cell by 0.05% trypsin-EDTA and add RPMI 1640 medium (DMEM or 5A) containing 12% calf serum. Count the number, then dilute to 1.67×10^4/ml. Add 180 ul/well to the 96 well plate (3000 cells/well).
(§5) 2.3.2 Culture: cells are incubated for 24 hours at 37° C. under 5% CO2.
(§6) 2.3.3 Preliminary screening: The compounds are firstly diluted to 0.1 mol/L with DMSO, and then diluted to three concentrations of 10^−5 mol/L, 10^−6 mol/L and 10^−7 mol/L. Add 20 ul test compounds to the 96 well plate and incubate for 72 hours. Each group has three parallel wells and all experiments repeat three times. Each inhibition ratio is calculated, then an average value of three times is taken as the measured value. 2.3.4 Staining 2.3.4.1 Attached cell: add 20 ul/well MTT to the 96-well plates; incubate for 4 hours in the incubator. Pour out the culture medium in the well and add 100 ul/well DMSO. Shake the plate for 5 min. 2.3.4.2 Suspension cell: add 20 ul/well MTT to the 96-well plates; incubate for 4 hours in the incubator. Add 50 ul/well 20% SDS and incubate for overnight in the incubator. 2.3.5 Reading the plates: read the absorbance A570-A630 with the Infinite M200 microtiter plate reader. Calculate the inhibition ratio of the test compounds. 2.3.6 Secondary screening: the compounds whose inhibition ratio is greater than 50% at the concentrations of 10^−5 mol/L in the preliminary screening will be picked out for Secondary screening. Dilute these compounds to ten concentrations: 10^−5 mol/L, 0.5×10^−5 mol/L, 10^−6 mol/L, 0.8×10^−6 mol/L, 0.6×10^−6 mol/L, 0.4×10^−6 mol/L, 0.2×10^−6 mol/L, 10^−7 mol/L, 0.8×10^−7 mol/L and 0.4×10^−7 mol/L. Add 20 ul test compound solution to the 96 well plate and incubate for 48 hours. Each group has three parallel wells and all experiments repeat for three times. Read the plates and calculate the inhibition ratio according to the preliminary screening method. 2.3.7 Calculate the Inhibition Ratio of Cell Proliferation and the IC50
(§7) According to the inhibition ratio of cell proliferation at the different concentrations of the compound, inhibition ratio of 50% of the test compound is calculated through the logarithm of the concentration of the compound with the Logit [I] linear regression, and an average value of three times is taken as the measured value of a sample.

The test system of assay [2] is Human Gastric Cancer Cell Line (BGC). Put plainly: Tumor cell proliferation assay (MTT), BGC. The note with it: concentration of 10^−5 mol/L, preliminary screening, 72 hours, read-out: Inhibition rate % BGC.
Source text: as §1, §2
2.2.1 Human Gastric Cancer Cell Line (BGC)
as §3, §4, §5, §6, §7

For assay [3], the system named is Human Hepatocellular Carcinoma Cell Line (HEPG2). Kind of assay: Tumor cell proliferation assay (MTT), HEPG2. As to conditions: concentration of 10^−5 mol/L, preliminary screening, 72 hours, read-out: Inhibition rate % HEPG2.
Source text: as §1, §2
2.2.8 Human Hepatocellular Carcinoma Cell Line (HEPG2);
The cells of 2.2.8, 2.2.9 cultured in DMEM/High glucose medium containing 12% calf serum in the condition of 37° C., 5% CO2.
as §4, §5, §6, §7

For assay [4], the system named is Human Pancreatic Carcinoma Cell Line (BXPC-3). Put plainly: Tumor cell proliferation assay (MTT), BXPC-3. The note with it: concentration of 10^−5 mol/L, preliminary screening, 72 hours, read-out: Inhibition rate % BXPC-3.
Source text: as §1, §2
2.2.6 Human Pancreatic Carcinoma Cell Line (BXPC-3);
(§8) The cells of 2.2.6, 2.2.7 cultured in RPMI 1640 medium containing 12% fetal bovine serum in the condition of 37° C., 5% CO2.
as §4, §5
as §6, with “2.3.6 Secondary screening: the compounds whose inhibition ratio is greater than 50% at the concentrations of 10^−5 mol/L in the preliminary screening will be picked out for Secondary screening.” left out
as §7

For assay [5], the system named is Human Pancreatic Carcinoma Cells (PANC-1). Kind of assay: Tumor cell proliferation assay (MTT), PANC-1. The note with it: concentration of 10^−5 mol/L, preliminary screening, 72 hours, read-out: Inhibition rate % PANC-1.
Source text: as §1, §2
2.2.4 Human Pancreatic Carcinoma Cells (PANC-1)
as §3, §4, §5, §6, §7

The subject of assay [6] is Human Colon Cancer Cell Line (CACO-2). Kind of assay: Tumor cell proliferation assay (MTT), CACO-2. As to conditions: concentration of 10^−5 mol/L, preliminary screening, 72 hours, read-out: Inhibition rate % CACO-2.
Source text: as §1, §2
2.2.10 Human Colon Cancer Cell Line (CACO-2)
The cell of 2.2.10 cultured in DMEM/High glucose medium containing 12% fetal bovine serum in the condition of 37° C., 5% CO2.
as §4, §5, §6, §7

In assay [7] the test system is Human Colon Cancer Cell Line (HCT 116). Put plainly: Tumor cell proliferation assay (MTT), HCT116. As to conditions: concentration of 10^−5 mol/L, preliminary screening, 72 hours, read-out: Inhibition rate % HCT116.
Source text: as §1, §2
2.2.12 Human Colon Cancer Cell Line (HCT 116);
(§9) The cells of 2.2.11, 2.2.12, 2.2.13 were cultured in MC COYS 5-A medium containing 12% fetal bovine serum in the condition of 37° C., 5% CO2.
as §4, §5, §6, §7

Assay [8] concerns Human Non-Small Cell Lung Cancer Cell Line (A549). Put plainly: Tumor cell proliferation assay (MTT), A549. As to conditions: concentration of 10^−5 mol/L, preliminary screening, 72 hours, read-out: Inhibition rate % A549.
Source text: as §1, §2
2.2.2 Human Non-Small Cell Lung Cancer Cell Line (A549)
as §3, §4, §5, §6, §7

In assay [9] the test system is Human Bladder Cancer Cell Line (T24). Put plainly: Tumor cell proliferation assay (MTT), T24. The note with it: concentration of 10^−5 mol/L, preliminary screening, 72 hours, read-out: Inhibition rate % T24.
Source text: as §1, §2
2.2.7 Human Bladder Cancer Cell Line (T24);
as §8, §4, §5, §6, §7

The test system of assay [10] is Human Colon Cancer Cell Line (HT-29). Put plainly: Tumor cell proliferation assay (MTT), HT29. The note with it: concentration of 10^−5 mol/L, preliminary screening, 72 hours, read-out: Inhibition rate % HT29.
Source text: as §1, §2
2.2.11 Human Colon Cancer Cell Line (HT-29);
as §9, §4, §5
as §6, with “2.3.6 Secondary screening: the compounds whose inhibition ratio is greater than 50% at the concentrations of 10^−5 mol/L in the preliminary screening will be picked out for Secondary screening.” left out
as §7

For three compounds, inhibition results are on record in patent US8084621B2, “3-Pyrrolo[b]cyclohexylene-2-dihydroindolinone derivatives and uses thereof” (Jiangsu Simcere Pharmaceutical R&D Co. Ltd., priority 2006, dated 2011).

The inhibition is how much of the control response was suppressed. Regarding `CCOC(=O)c1c(C)[nH]c2c1CCC/C2=C1/C(=O)Nc2ccc(F)cc21` [I-1, ethyl 2-methyl-7-[1,2-dihydro-5-fluoro-2-oxo-3H-indol-(Z)-3-ylidene]-4,5,6,7-tetrahydro-1H-indole-3-carboxylate], the inhibition at 10 µM in assay [1] was 28.6%.
As for `Cc1[nH]c2c(c1C(=O)N1CCOCC1)CCC/C2=C1/C(=O)Nc2ccccc21` [I-12, 2-methyl-3-(morpholine-4-carbonyl)-7-[1,2-dihydro-2-oxo-3H-indol-(Z)-3-ylidene]-4,5,6,7-tetrahydro-1H-indole], the inhibition at 10 µM amounted to 31.9% in assay [2]; 12.8% in assay [3]; 29.5% in [4]; 23.3% in [5]; 11.7% in assay [6]; 36.5% in assay [7]. Besides, the inhibition at 10 µM amounted to 1.1% in assay [8], 14.6% in assay [9] and 78.4% in assay [10].
Consider `Cc1[nH]c2c(c1C(=O)N1CCN(C)CC1)CCC/C2=C1/C(=O)Nc2ccccc21` [I-13, 2-methyl-3-(4-methylpiperazine-1-carbonyl)-7-[1,2-dihydro-2-oxo-3H-indol-(Z)-3-ylidene]-4,5,6,7-tetrahydro-1H-indole], for which the inhibition at 10 µM stood at 11.1% in assay [2]; 46% in assay [3]; 42.4% in [4]; 0% in assay [5]; 9.79% in assay [6]; 3.82% in assay [8]. Further, the inhibition at 10 µM stood at 9.04% in assay [9] and 63.2% in [10].
